Laboratory results as given in article PMC5554220, “A Novel Aldosterone Antagonist Limits Renal Injury in 5/6 Nephrectomy” (Scientific Reports, 2017).

Experiments:
[1] = molecular target: T1, human glucocorticoid receptor (hGR) (Homo sapiens, UniProt P04150); assay: Radioligand binding, hGR expressed in HEK293 cells
T1 construct: expressed in transfected cells; host or cells: HEK293 cells
T1 sequence (P04150 1-777): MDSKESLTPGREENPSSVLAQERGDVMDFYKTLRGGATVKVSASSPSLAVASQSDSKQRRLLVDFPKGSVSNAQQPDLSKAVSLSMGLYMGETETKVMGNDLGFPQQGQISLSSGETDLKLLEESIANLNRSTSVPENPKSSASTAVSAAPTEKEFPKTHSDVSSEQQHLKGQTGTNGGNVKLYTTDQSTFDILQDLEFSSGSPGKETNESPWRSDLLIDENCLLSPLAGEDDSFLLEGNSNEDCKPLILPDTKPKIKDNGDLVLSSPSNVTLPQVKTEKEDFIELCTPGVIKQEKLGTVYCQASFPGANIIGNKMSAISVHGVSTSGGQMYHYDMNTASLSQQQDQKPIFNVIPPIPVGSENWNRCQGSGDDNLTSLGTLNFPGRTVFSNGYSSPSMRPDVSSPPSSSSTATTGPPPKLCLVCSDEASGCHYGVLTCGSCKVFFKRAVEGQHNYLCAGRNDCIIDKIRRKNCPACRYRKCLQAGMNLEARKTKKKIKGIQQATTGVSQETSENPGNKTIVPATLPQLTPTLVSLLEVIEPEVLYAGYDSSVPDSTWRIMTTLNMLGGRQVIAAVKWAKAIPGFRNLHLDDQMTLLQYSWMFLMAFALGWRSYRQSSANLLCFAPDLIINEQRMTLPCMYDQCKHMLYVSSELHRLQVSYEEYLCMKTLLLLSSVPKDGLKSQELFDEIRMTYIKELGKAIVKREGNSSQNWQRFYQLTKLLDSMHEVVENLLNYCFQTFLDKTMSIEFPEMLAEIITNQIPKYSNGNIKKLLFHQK
Procedure: Affinity of ligands to the soluble receptor was determined using vacuum filtration methods, preparing soluble receptors in 96-well Falcon polystyrene plates (BD Biosciences, Bedford, MA) in a total volume of 250 μl. The hMR Sf9 lysate (approximately 20–25 μg protein in 20 μl) was incubated in the absence or presence of competing ligands with 10 μl of [1,2,6,7-3H] […] Binding studies for ligands for hPR and hAR were determined using [1,2,6,7-3H(N)] Progesterone (specific activity 103 Ci/mmol, at a final concentration 0.5 nM; NET381, NEN/Perkin Elmer Life Sciences, Boston, MA) and [17α-methyl-3H] Mibolerone, an enzymaticaly stable analog of testosterone (specific activity 76.8 Ci/mmol, final concentration 0.3 nM; NET919, NEN), respectively. Specific binding of 3H-progesterone for hPR and 3H-mibolerone for hAR was determined in the presence and absence of 1 μM mifepristone. Inhibition constants (Ki), were determined either from the Cheng-Prusoff equation[32], or directly using non-linear regression curve fitting to a three-parameter one-site competitive equation. Ki values obtained from individual concentration response curves were reported as the mean ± SEM. Protein was measured using colorimetric detection and quantification of bicinchoninic acid (BCA Protein Assay, Pierce, Rockford, IL). Cos-7L cells were cotransfected with expression vectors and a reporter plasmid responsive to all 3 nuclear hormone receptors. pBluescript II SK (+) (Stratagene, San Diego, CA) was included as a source of carrier DNA. The number of repetitions of full concentration response curves (n) represents values from at least two independent experiments for each condition. Concentration response curves were analyzed statistically using a four-parameter logistic equation (Hill equation for sigmoid curves). Similar methodology was adopted for the human glucocorticoid receptor (hGR) expressed in HEK293 cells.

[2] = test system: rats with 5/6 renal ablation (Nx); assay: Protocol 2 (late treatment), 5/6 renal ablation (Nx); assay type: in vivo, male Munich-Wistar rats; details: Ly as an add-on to L, Day 150
Description: One-hundred forty-five adult male Munich-Wistar rats, obtained from a local facility at the Faculty of Medicine, University of São Paulo, weighing between 220 and 250 g, were used in this study. All experimental procedures were approved by the local Research Ethics Committee (Comissão de Ética para Análise de Projetos de Pesquisa do Hospital das Clínicas da Faculdade de Medicina da Universidade de São Paulo, CAPPesq, process n° 0905/09), and carried out following strictly our institutional guidelines and current international standards for manipulation and care of laboratory animals. Body weights and general conditions were assessed daily. Five-sixths renal ablation (Nx) was performed as a single-step procedure under anesthesia with ketamine 50 mg/kg and xylazine 10 mg/kg im. After ventral laparotomy, the right kidney was excised and two or three branches of the left renal artery were ligated, so as to promote infarction of two-thirds of the left kidney. The operation was invariably well tolerated. Sham-operated rats underwent anesthesia and manipulation of the renal pedicles without removal of renal mass. After surgery, rats received enrofloxacin and, upon recovery, had free access to tap water and regular rodent chow containing 0.5 Na and 22% protein (Nuvital Labs, Curitiba, Brazil), and were kept at 23 ± 1 °C and 60 ± 5% relative air humidity, under an artificial 12–12 hour light/dark cycle. Rats were then treated following two different experimental protocols (described later).
In Protocol 2, adult male Munich-Wistar rats were subjected to Nx as described earlier, and left untreated for two months. At this time, TCP and UalbV were assessed as described earlier. Rats with TCP ≤ 170 mmHg or UalbV ≤ 40 mg/day were excluded from the study. The remaining […] Nx rats were divided into four experimental groups: Nx + V (N = 14), untreated Nx rats; Nx + L (N = 15), receiving oral L, 50 mg/kg in drinking water; Nx + L + Eple (N = 14), receiving L and Eple (N = 14), 150 mg/kg/day; and Nx + L + Ly (N = 14), receiving L and Ly (20 mg/kg/day) as described before. A group of S rats (N = 16) was also included. All groups were followed for 90 days after treatments were started (150 days after nephrectomy), with monthly measurement of TCP and UalbV. At the end of this period, rats were anesthetized, blood was collected, and the renal tissue was perfusion-fixed and prepared for histomorphometric and immunohistochemical examination in the same manner as for Protocol 1.
Histomorphometric analysis was performed blindly by two independent observers. The extent of glomerular injury was estimated, in PAS-stained sections, by determining the percentage of glomeruli with sclerotic lesions. The fraction of the renal cortical area occupied by interstitial tissue (%INT) was estimated in 25 consecutive microscopic fields of Masson-stained sections by a point-counting technique, at a final magnification of 200X, under a 144-point grid.
Immunohistochemistry was performed on 4-μm-thick sections, mounted on glass slides precoated with 2% silane. Sections were deparaffinized and rehydrated by conventional techniques, then heated in citrate buffer for antigen retrieval and incubated overnight with the primary antibody at 4 °C (no antibody in negative control experiments). Primary antibodies used were: monoclonal mouse anti-rat ED-1 (Serotec, Oxford, UK); polyclonal rabbit anti-human AngII (Peninsula Laboratories, San Carlos, CA); and polyclonal rabbit anti-collagen I (Abcam, Cambridge, UK).
For ED-1 detection, sections were preincubated with 5% normal rabbit serum to prevent nonspecific binding, then incubated overnight at 4 °C with the primary antibody diluted in BSA at 1%. […]

O=c1[nH]c2ccc(/C=C3\c4ccc(F)cc4COc4cc(F)ccc43)cc2[nH]1 [Ly]
Ki ([1]; hGR expressed in HEK293 cells, read-out: Mean Ki ± SEM hGR*): 112 ± 18 nM | Ratio of Ki's hGR*: hMR ([1]; selectivity): 70 | Interstitial expansion (cortical interstitial area) [2]: reduced to levels significantly lower than in the Nx + V group
